# Test results from US20100063065A1 (Inpharmatica Limited, priority 2005, published 2010).
# Where a name gives a salt, the structure may show the parent alone.
# Biological target: T1, PPARδ (Homo sapiens, UniProt Q03181)
# T1 construct: fused to amino acids 147-441 of PPARδ downstream of CMV promoter; expressed in transfected cells; host or cells: HEK293 cells, transiently transfected with pFACMV-PPARδ using Fugene
# T1 sequence (Q03181 147-441): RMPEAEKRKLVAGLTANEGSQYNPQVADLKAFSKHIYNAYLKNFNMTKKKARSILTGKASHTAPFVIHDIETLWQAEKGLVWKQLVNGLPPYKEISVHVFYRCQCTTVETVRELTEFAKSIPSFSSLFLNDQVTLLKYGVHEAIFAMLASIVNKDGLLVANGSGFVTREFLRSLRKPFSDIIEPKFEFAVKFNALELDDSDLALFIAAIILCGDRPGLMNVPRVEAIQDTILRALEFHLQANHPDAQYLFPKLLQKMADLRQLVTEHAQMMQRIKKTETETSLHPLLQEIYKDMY
# Test: Transactivation assay (PPARδ GAL4 assay) in transiently transfected HEK293 cells
# Format: cell-based
# Conditions: luciferase reporter
# Method in brief: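 Luciferase luminescence after 24 h compound treatment (0-30 μM final, OptiMEM, 37° C./5% CO2) gave EC50 by sigmoidal fitting, with activity normalised to GW501516 as percent. Reporter system: transiently transfected HEK293 expressing GAL4 DNA-binding domain fused to human PPARδ aa 147-441, plus 5×GAL4-driven luciferase.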
SMILES,EC50 (Table 2) [µM],EC50 (Table 1) [µM]
"CCc1cc(C(=O)c2ccc(OC(F)(F)F)cc2)c(NC(=O)C(CC)SCC(=O)O)s1 (stereo not shown) [Example 109, {1-[5-Ethyl-3-(4-trifluoromethoxy-benzoyl)-thiophen-2-ylcarbamoyl]-propylsulfanyl}-acetic acid]",< 0.1,–
"CCc1cc(C(=O)c2ccc(-c3ccccc3)cc2)c(NC(=O)CC(C)(C)CC(=O)O)s1 [Example 37, 4-[3-(Biphenyl-4-carbonyl)-5-ethyl-thiophen-2-ylcarbamoyl]-3,3-dimethyl-butyric acid]",–,0.1 to 1
"CCc1cc(C(=O)c2ccc(C(F)(F)F)cc2)c(NC(=O)CSCC(=O)O)s1 [Example 45, {[5-Ethyl-3-(4-trifluoromethylbenzoyl)-thiophen-2-ylcarbamoyl]-methylsulfanyl}-acetic acid]",–,< 0.1
"CCc1cc(C(=O)c2ccc(Br)cc2)c(NC(=O)CSCC(=O)O)s1 [Example 22, {[3-(4-Bromo-benzoyl)-5-ethyl-thiophen-2-ylcarbamoyl]-methylsulfanyl}-acetic acid]",–,< 0.1
"CCc1cc(C(=O)c2ccc(Cl)cc2)c(NC(=O)CSc2ccc(OC(C)(C)C(=O)O)cc2)s1 [Example 138, 2-(4-{[3-(4-Chloro-benzoyl)-5-ethyl-thiophen-2-ylcarbamoyl]-methylsulfanyl}-phenoxy)-2-methyl-propionic acid]",0.1 to 1,–
"CCc1cc(C(=O)c2ccc(OC(F)(F)F)cc2)c(NC(=O)CN2CCC(C(=O)O)CC2)s1 [Example 163, 1-{[5-Ethyl-3-(4-trifluoromethoxy-benzoyl)-thiophen-2-ylcarbamoyl]-methyl}-piperidine-4-carboxylic acid]",0.1 to 1,–
"CCC(C)c1cc(C(=O)c2ccc(OC(F)(F)F)cc2)c(NC(=O)CSCC(=O)O)s1 (stereo not shown) [Example 134, {[5-sec-Butyl-3-(4-trifluoromethoxy-benzoyl)-thiophen-2-ylcarbamoyl]-methylsulfanyl}-acetic acid]",0.1 to 1,–
"CCc1cc(C(=O)c2ccc(OC(F)(F)F)cc2)c(NC(=O)CCN2CCC[C@@H]2C(=O)O)s1 [Example 193, (R)-1-{2-[5-Ethyl-3-(4-trifluoromethoxy-benzoyl)-thiophen-2-ylcarbamoyl]-ethyl}-pyrrolidine-2-carboxylic acid]",0.1 to 1,–
"CCc1cc(C(=O)c2ccc(OC(F)(F)F)cc2)c(NC(=O)CN2CCCC2(C)C(=O)O)s1 (stereo not shown) [Example 173, 1-{[5-Ethyl-3-(4-trifluoromethoxy-benzoyl)-thiophen-2-ylcarbamoyl]-methyl}-2-methyl-pyrrolidine-2-carboxylic acid]",0.1 to 1,–
"CCc1cc(C(=O)c2ccc(OC(F)(F)F)cc2)c(NC(=O)CN2CCC[C@H]2C(=O)O)s1 [Example 167, (S)-1-{[5-Ethyl-3-(4-trifluoromethoxy-benzoyl)-thiophen-2-ylcarbamoyl]-methyl}-pyrrolidine-2-carboxylic acid]",1 to 30,–
"CCc1ccc(C(=O)c2cc(CC)sc2NC(=O)CC2(CC(=O)O)CCCC2)cc1 [Example 11, (1-{[5-Ethyl-3-(4-ethyl-benzoyl)-thiophen-2-ylcarbamoyl]-methyl}-cyclopentyl)-acetic acid]",–,1 to 30
"CCc1cc(C(=O)c2ccc(OC)nc2)c(NC(=O)CSCC(=O)O)s1 [Example 55, {[5-Ethyl-3-(6-methoxy-pyridine-3-carbonyl)-thiophen-2-ylcarbamoyl]-methylsulfanyl}-acetic acid]",–,1 to 30
"CCc1cc(C(=O)c2ccc(C)c(C)c2)c(NC(=O)CSC(C)(C)C(=O)O)s1 [Example 54, 2-{[3-(3,4-Dimethyl-benzoyl)-5-ethyl-thiophen-2-ylcarbamoyl]-methylsulfanyl}-2-methyl-propionic acid]",–,0.1 to 1
"CCCc1cc(C(=O)c2ccc(OC)cc2)c(NC(=O)CSCC(=O)O)s1 [Example 63, {[3-(4-Methoxybenzoyl)-5-propyl-thiophen-2-ylcarbamoyl]-methylsulfanyl}-acetic acid]",–,1 to 30
"CCc1cc(C(=O)c2cccc(Br)c2)c(NC(=O)CSCC(=O)O)s1 [Example 34, {[3-(3-Bromo-benzoyl)-5-ethyl-thiophen-2-ylcarbamoyl]-methylsulfanyl}-acetic acid]",–,0.1 to 1
"CCc1cc(C(=O)c2ccc(OC(F)(F)F)cc2)c(NC(=O)CN(C)C(C)(C)C(=O)O)s1 [Example 196, 2-({[5-Ethyl-3-(4-trifluoromethoxy-benzoyl)-thiophen-2-ylcarbamoyl]-methyl}-methyl-amino)-2-methyl-propionic acid]",1 to 30,–
"CC(C)(NCC(=O)Nc1sc(Cl)cc1C(=O)c1ccc(OC(F)(F)F)cc1)C(=O)O [Example 86, 2-({[5-Chloro-3-(4-trifluoromethoxy-benzoyl)-thiophen-2-ylcarbamoyl]-methyl}-amino)-2-methyl-propionic acid]",–,0.1 to 1

SMILES,EC50 (Table 2) [µM],EC50 (Table 1) [µM]
"CCc1cc(C(=O)c2ccc(OC(F)(F)F)cc2)c(NC(=O)CN2[C@@H](C(=O)O)CC[C@@H]2C)s1 [Example 182, (2R,5S)-1-{[5-Ethyl-3-(4-trifluoromethoxy-benzoyl)-thiophen-2-ylcarbamoyl]-methyl}-5-methyl-pyrrolidine-2-carboxylic acid]",< 0.1,–
"CCc1cc(C(=O)c2ccc(OC(F)(F)F)cc2)c(NC(=O)C(SCC(=O)O)c2ccccc2)s1 (stereo not shown) [Example 113, {[5-Ethyl-3-(4-trifluoromethoxy-benzoyl)-thiophen-2-ylcarbamoyl]-phenyl-methylsulfanyl}-acetic acid]",< 0.1,–
"CCc1cc(C(=O)c2ccc(OC)cc2)c(NC(=O)CNCC(=O)O)s1 [Example 74, ({[5-Ethyl-3-(4-methoxy-benzoyl)-thiophen-2-ylcarbamoyl]-methyl}-amino)-acetic acid hydrochloride]",–,1 to 30
"CCc1cc(C(=O)c2ccc3cc(Cl)ccc3n2)c(NC(=O)CSCC(=O)O)s1 [Example 156, {[3-(6-Chloro-quinoline-2-carbonyl)-5-ethyl-thiophen-2-ylcarbamoyl]-methylsulfanyl}-acetic acid]",0.1 to 1,–
"CCc1cc(C(=O)c2ccc(F)cc2)c(NC(=O)CC2(CC(=O)O)CCCC2)s1 [Example 21, (1-{[5-Ethyl-3-(4-fluoro-benzoyl)-thiophen-2-ylcarbamoyl]-methyl}-cyclopentyl)-acetic acid]",–,1 to 30
"CC(C)c1cc(C(=O)c2ccc(OC(F)(F)F)cc2)c(NC(=O)CSCC(=O)O)s1 [Example 133, {[5-Isopropyl-3-(4-trifluoromethoxy-benzoyl)-thiophen-2-ylcarbamoyl]-methylsulfanyl}-acetic acid]",< 0.1,–
"CCc1cc(C(=O)c2ccc(OC)nc2)c(NC(=O)CC2(CC(=O)O)CCCC2)s1 [Example 56, (1-{[5-Ethyl-3-(6-methoxy-pyridine-3-carbonyl)-thiophen-2-ylcarbamoyl]-methyl}-cyclopentyl)-acetic acid]",–,1 to 30
"CCc1cc(C(=O)c2ccc(OC(F)(F)F)cc2)c(NC(=O)C(C)NCC(=O)O)s1 (stereo not shown) [Example 158, {1-[5-Ethyl-3-(4-trifluoromethoxy-benzoyl)-thiophen-2-ylcarbamoyl]-ethylamino}-acetic acid]",0.1 to 1,–
"CCc1cc(C(=O)c2ccc(F)c(Cl)c2)c(NC(=O)CSCC(=O)O)s1 [Example 31, {[3-(3-Chloro-4-fluoro-benzoyl)-5-ethyl-thiophen-2-ylcarbamoyl]-methylsulfanyl}-acetic acid]",–,0.1 to 1
"CCc1cc(C(=O)c2ccc(OC(F)(F)F)cc2)c(NC(=O)CNC(C)(C)C(=O)O)s1 [Example 76, 2-({[5-Ethyl-3-(4-trifluoromethoxy-benzoyl)-thiophen-2-ylcarbamoyl]-methyl}-amino)-2-methyl-propionic acid]",–,< 0.1
"CCc1cc(C(=O)c2ccc(OC)c(OC)c2)c(NC(=O)CSCC(=O)O)s1 [Example 49, {[3-(3,4-Dimethoxybenzoyl)-5-ethyl-thiophen-2-ylcarbamoyl]-methylsulfanyl}-acetic acid]",–,1 to 30
"CCc1cc(C(=O)c2ccc(OC(F)(F)F)cc2)c(NC(=O)CN[C@@H](CC)C(=O)O)s1 [Example 191, (S)-2-({[5-Ethyl-3-(4-trifluoromethoxy-benzoyl)-thiophen-2-ylcarbamoyl]-methyl}-amino)-butyric acid]",0.1 to 1,–
"CCc1cc(C(=O)c2ccc(F)cc2)c(NC(=O)CSc2ccc(OC(C)(C)C(=O)O)cc2)s1 [Example 137, 2-(4-{[5-Ethyl-3-(4-fluoro-benzoyl)-thiophen-2-ylcarbamoyl]-methylsulfanyl}-phenoxy)-2-methyl-propionic acid]",0.1 to 1,–
"CCc1cc(C(=O)c2ccc(OC(F)(F)F)cc2)c(NC(=O)CSC(C(=O)O)c2ccccc2)s1 (stereo not shown) [Example 128, {[5-Ethyl-3-(4-trifluoromethoxy-benzoyl)-thiophen-2-ylcarbamoyl]-methylsulfanyl}-phenyl-acetic acid]",0.1 to 1,–
"CCCc1cc(C(=O)c2ccc(OC(F)(F)F)cc2)c(NC(=O)CSCC(=O)O)s1 [Example 132, {[5-Propyl-3-(4-trifluoromethoxy-benzoyl)-thiophen-2-ylcarbamoyl]-methylsulfanyl}-acetic acid]",< 0.1,–
"CCc1cc(C(=O)c2cccc(-c3ccc(OC(F)(F)F)cc3)c2)c(NC(=O)CSCC(=O)O)s1 [Example 44, {[5-Ethyl-3-(4′-trifluoromethoxy-biphenyl-3-carbonyl)-thiophen-2-ylcarbamoyl]-methylsulfanyl}-acetic acid]",–,0.1 to 1
"CCc1cc(C(=O)c2ccc(C(F)(F)F)nc2)c(NC(=O)CSCC(=O)O)s1 [Example 57, {[5-Ethyl-3-(6-trifluoromethyl-pyridine-3-carbonyl)-thiophen-2-ylcarbamoyl]-methylsulfanyl}-acetic acid]",–,1 to 30
